PMC9646673, “A Novel, Orally Bioavailable, Small-Molecule Inhibitor of PCSK9 With Significant Cholesterol-Lowering Properties In Vivo” (Journal of Lipid Research, 2022)

How the values were obtained:
APOE∗3-Leiden.CETP mice [1] = assay: Second efficacy study: body weight, food intake, plasma ALT and AST; type: in vivo, mouse; parameters: Body weight (mean ± SD) / Food intake (mean ± SD): unit not given here; conditions: NYX-PCSK9i 50 mg/kg BID PO, atorvastatin […]
From the text: Animal experiments were approved by the governmental central committee on animal experiments (AVD5010020172064) and TNO’s animal welfare body (TNO-471 and TNO-482). Female APOE∗3-Leiden.CETP transgenic mice (11–16 weeks of age) were bred at the animal facility of TNO-InnoSer (Leiden, The Netherlands). Female animals were used in this study as they are more responsive to dietary cholesterol and fat than males and therefore typically develop atherosclerosis more rapidly than male APOE∗3-Leiden and APOE∗3-Leiden.CETP mice on cholesterol-containing diets ([33], [34]). Although measurements of atherosclerosis were not included as part of the present study, females were used with the prospect in mind that atherosclerosis studies will follow. The mice were housed under standard conditions that included 12 h light-dark cycles and access to a WTD and sterilized tap water ad libitum. Body weight, food intake, and clinical signs of behavior were monitored throughout the studies. […] Time t = 0 (weeks) was designated as the time at which mice were matched into groups after the 3-week run-in period in each efficacy study.
In both studies, blood samples were collected at weekly intervals via tail vein sampling after fasting the mice for 4 h. Blood samples were centrifugated (4500 g at 4°C), and the plasma was collected for the following analyses. Total plasma cholesterol levels were determined using a Cholesterol CHOD-PAP kit according to the manufacturer’s instructions. Plasma HDL-C levels were determined by first precipitating apoB-containing lipids using PEG 6000/glycine and then utilizing the Cholesterol CHOD-PAP kit ([35]). Non-HDL-C levels were determined by subtracting HDL-C levels from total cholesterol levels ([32]). Group-pooled lipoprotein profiles were determined by FPLC analysis using an AKTApurifier 10 FPLC system (GE Healthcare, Chicago, IL). Plasma PCSK9 levels were determined using a Mouse PCSK9 Quantikine ELISA kit as per the manufacturer’s protocol. ALT and AST levels of group-pooled samples were measured using the Roche Reflotron Plus System (Mannheim, Germany).

hepatic LDLR protein = assay: Second efficacy study: hepatic LDLR protein (Western blotting); type: in vivo, mouse; conditions: day 35; NYX-PCSK9i 50 mg/kg BID PO, atorvastatin […]
APOE∗3-Leiden.CETP mice [2] = conditions: cited from earlier work

In the case of CC(C)c1c(C(=O)Nc2ccccc2)c(-c2ccccc2)c(-c2ccc(F)cc2)n1CC[C@@H](O)C[C@@H](O)CC(=O)O [atorvastatin, reference compound], the “Body weight (mean ± SD)” value (APOE∗3-Leiden.CETP mice [1]; day 0 (baseline)) is reported as 21.7 ± 0.8, the “Food intake (mean ± SD)” value (APOE∗3-Leiden.CETP mice [1]; day 0 (baseline)) is reported as 3.4 ± 0.3 and the “Food intake (mean ± SD)” value (APOE∗3-Leiden.CETP mice [1]; day 7) is reported as 2.5 ± 0.1. For the same molecule, the “Food intake (mean ± SD)” value (APOE∗3-Leiden.CETP mice [1]; day 14) was 2.5 ± 0.2, the “Food intake (mean ± SD)” value (APOE∗3-Leiden.CETP mice [1]; day 21) was 2.3 ± 0.0 and the “Body weight (mean ± SD)” value (APOE∗3-Leiden.CETP mice [1]; day 28) was 21.8 ± 1.2. For the same molecule, the “Food intake (mean ± SD)” value (APOE∗3-Leiden.CETP mice [1]; day 28) was 2.3 ± 0.1, the “Food intake (mean ± SD)” value (APOE∗3-Leiden.CETP mice [1]; day 35) was 2.5 ± 0.1 and the “increase in hepatic LDLR protein expression” value (hepatic LDLR protein) was “no significant effect”.
For “alirocumab: a monoclonal antibody against PCSK9”, the “hepatic cholesteryl ester content, fecal bile acid content and fecal neutral sterol levels” value (APOE∗3-Leiden.CETP mice [2]) is given as “affected none of these parameters”.
